From PMC6321168, “Comparative Study on Excretive Characterization of Main Components in Herb Pair Notoginseng-Safflower and Single Herbs by LC–MS/MS” (Pharmaceutics, 2018)

Experiment: Fecal excretion study in rats after oral NS, SF or CNS (LC–MS/MS)
Type: in vivo
Conditions: rat feces
Experimental: The animal room was set at constant temperature of 20 ± 2 °C with humidity of 50 ± 20% and 12/12 h light/dark cycle.
Eighteen male rats were fasted for 12 h before starting the experiment. The rats were divided into three groups at random (n = 6) and received NS (60 mg/kg), SF (50 mg/kg), and NS (60 mg/kg) + SF (50 mg/kg), respectively, by oral gavage. The rats were placed in separate metabolic cages. The urine samples were collected at 0–2, 2–4, 4–6, 6–8, 8–12, 12–24, 24–36, 36–48, 48–72, 72–96, and 96–120 h. The feces samples were collected at 0–4, 4–8, 8–12, 12–24, 24–36, 36–48, 48–72, 72–96, and 96–120 h. The urine volume was recorded and the dry feces were measured for each collection period. Samples were stored at −80 °C until analysis.
Feces samples were homogenized in ultrapure water (1 g/15 mL), soaked for 30 min, ultrasonically extracted for 30 min and centrifuged at 9000 rpm for 8 min. An aliquot of 200 μL feces water extraction solution was mixed with 10 μL of IS and then extracted three times with water-saturated n-BuOH (150 μL). The upper organic phase was combined and evaporated to dryness using a ZLS-2 vacuum centrifugal concentrator. The residue was treated as the urine sample and a 1-μL aliquot was injected for LC–MS analysis.
Ultra fast liquid chromatography (UFLC) analysis was performed using a Shimadzu UFLC system (DGU-20A3R Degasser; LC-20AD pump; SIL-20AXR Autosampler; CTO-20AC Column Oven) (Nakagyo-Ku, Koyoto, Japan). […] Because of the different endogenous substances in the urine and feces samples, different elution gradients were used to alleviate the matrix effects for the analytes.
The mass spectrometric detection was performed on an ABSciex 4500 Qtrap mass spectrometer (ABSciex, Foster City, CA, USA) equipped with a negative electrospray ionization (ESI) interface using multiple reaction monitoring (MRM). The MS parameters were optimized under the selected ion monitoring conditions as follows: curtain gas, 35 psi; ionspray voltage, 4500 V; turbo gas temperature, 450 °C; GS1, 45 psi; GS2, 45 psi. All data were acquired and analyzed by Analyst software (Versions 1.6.2) from ABSciex.
The accumulative excretion percentage was calculated for each analyte as follows. Excretion at time (t) = [concentration of the analyte (ng/mL) at t] × total urine (or feces) volume (mL) at t. The cumulative excretion up to time t (mg) was expressed as a percent (%) cumulative excretion by dividing by the total amount of the analyte ingested (mg): % Cumulative Excretion = 100 × (Σt excretiont) total ingested.

## CC(C)=CCC[C@](C)(O[C@@H]1O[C@H](CO)[C@@H](O)[C@H](O)[C@H]1O)[C@H]1CC[C@]2(C)[C@@H]1[C@H](O)C[C@@H]1[C@@]3(C)CC[C@H](O)C(C)(C)[C@@H]3[C@@H](O[C@@H]3O[C@H](CO)[C@@H](O)[C@H](O)[C@H]3O[C@@H]3O[C@@H](C)[C@H](O)[C@@H](O)[C@H]3O)C[C@]12C [ginsenoside Re]
male, Sprague Dawley, oral CNS 110 mg/kg, 4 h
  concentration at 4 h: 87 ± 124 ng/mL
male, Sprague Dawley, oral CNS 110 mg/kg, 8 h
  concentration at 8 h: 267 ± 204 ng/mL
male, Sprague Dawley, oral CNS 110 mg/kg, 12 h
  concentration at 12 h: 330 ± 26 ng/mL
male, Sprague Dawley, oral CNS 110 mg/kg, 24 h
  concentration at 24 h: 366 ± 20 ng/mL
male, Sprague Dawley, oral CNS 110 mg/kg, 36 h
  concentration at 36 h: 367 ± 26 ng/mL
male, Sprague Dawley, oral CNS 110 mg/kg, 48 h
  concentration at 48 h: 354 ± 28 ng/mL
male, Sprague Dawley, oral CNS 110 mg/kg, 72 h
  concentration at 72 h: 168 ± 69 ng/mL
male, Sprague Dawley, oral CNS 110 mg/kg, 96 h
  concentration at 96 h: 44 ± 43 ng/mL
male, Sprague Dawley, oral NS 60 mg/kg, 4 h
  concentration at 4 h: 323 ± 43 ng/mL
male, Sprague Dawley, oral NS 60 mg/kg, 8 h
  concentration at 8 h: 455 ± 18 ng/mL
male, Sprague Dawley, oral NS 60 mg/kg, 12 h
  concentration at 12 h: 401 ± 27 ng/mL
male, Sprague Dawley, oral NS 60 mg/kg, 24 h
  concentration at 24 h: 430 ± 15 ng/mL
male, Sprague Dawley, oral NS 60 mg/kg, 36 h
  concentration at 36 h: 421 ± 18 ng/mL
male, Sprague Dawley, oral NS 60 mg/kg, 48 h
  concentration at 48 h: 561 ± 26 ng/mL
male, Sprague Dawley, oral NS 60 mg/kg, 72 h
  concentration at 72 h: 81 ± 6 ng/mL
male, Sprague Dawley, oral NS 60 mg/kg, 96 h
  concentration at 96 h: 18 ± 1 ng/mL
male, Sprague Dawley, oral NS 60 mg/kg, 120 h
  concentration at 120 h: 17 ± 2 ng/mL
Oral CNS 110 mg/kg, 4 h
  Accumulative excretion amount: 1.098 ± 1.616 µg
  Accumulative excretion percentage: 0.234±0.345%
  Excretion amount: 1.098 ± 1.616 µg
Oral CNS 110 mg/kg, 8 h
  Accumulative excretion amount: 4.802 ± 4.393 µg
  Accumulative excretion percentage: 1.022±0.936%
  Excretion amount: 3.705 ± 2.813 µg
Oral CNS 110 mg/kg, 12 h
  Accumulative excretion amount: 9.675 ± 4.726 µg
  Accumulative excretion percentage: 2.051±1.001%
  Excretion amount: 4.873 ± 1.226 µg
Oral CNS 110 mg/kg, 24 h
  Accumulative excretion amount: 15.135 ± 5.426 µg
  Accumulative excretion percentage: 3.203±1.152%
  Excretion amount: 5.459 ± 1.584 µg
Oral CNS 110 mg/kg, 36 h
  Accumulative excretion amount: 20.570 ± 6.347 µg
  Accumulative excretion percentage: 4.364±1.343%
  Excretion amount: 5.435 ± 1.413 µg
Oral CNS 110 mg/kg, 48 h
  Accumulative excretion amount: 25.852 ± 7.369 µg
  Accumulative excretion percentage: 5.469±1.568%
  Excretion amount: 5.282 ± 1.513 µg
Oral CNS 110 mg/kg, 72 h
  Accumulative excretion percentage: 6.027±1.613%
  Excretion amount: 2.615 ± 1.424 µg
Oral CNS 110 mg/kg, 96 h
  Accumulative excretion amount: 29.184 ± 7.675 µg
  Accumulative excretion percentage: 6.182±1.623%
  Excretion amount: 0.717 ± 0.713 µg
Oral CNS 110 mg/kg, 120 h
  Accumulative excretion amount: 29.184 ± 7.675 µg
  Accumulative excretion percentage: 6.182±1.623%
Oral NS 60 mg/kg, 4 h
  Accumulative excretion amount: 4.585 ± 1.408 µg
  Accumulative excretion percentage: 0.852±0.261%
  Excretion amount: 4.585 ± 1.408 µg
Oral NS 60 mg/kg, 8 h
  Accumulative excretion amount: 11.148 ± 3.459 µg
  Accumulative excretion percentage: 2.063±0.644%
  Excretion amount: 6.563 ± 2.122 µg
Oral NS 60 mg/kg, 12 h
  Accumulative excretion amount: 16.907 ± 5.229 µg
  Accumulative excretion percentage: 3.122±0.971%
  Excretion amount: 5.759 ± 1.787 µg
Oral NS 60 mg/kg, 24 h
  Accumulative excretion amount: 23.057 ± 7.062 µg
  Accumulative excretion percentage: 4.266±1.305%
  Excretion amount: 6.150 ± 1.850 µg
Oral NS 60 mg/kg, 36 h
  Accumulative excretion amount: 29.162 ± 9.141 µg
  Accumulative excretion percentage: 5.397± 1.699%
  Excretion amount: 6.105 ± 2.098 µg
Oral NS 60 mg/kg, 48 h
  Accumulative excretion amount: 37.268 ± 11.835 µg
  Accumulative excretion percentage: 6.892±2.193%
  Excretion amount: 8.106 ± 2.700 µg
Oral NS 60 mg/kg, 72 h
  Accumulative excretion amount: 38.423 ± 12.180 µg
  Accumulative excretion percentage: 7.103±2.254%
  Excretion amount: 1.155 ± 0.306 µg
Oral NS 60 mg/kg, 96 h
  Accumulative excretion amount: 38.685 ± 12.265 µg
  Accumulative excretion percentage: 7.149±2.268%
  Excretion amount: 0.262 ± 0.086 µg
Oral NS 60 mg/kg, 120 h
  Accumulative excretion amount: 38.937 ± 12.350 µg
  Accumulative excretion percentage: 7.187±2.278%
  Excretion amount: 0.252 ± 0.091 µg
